Data reported in patent US10118947B2, “Modulation of structured polypeptide specificity” (BICYCLE THERAPEUTICS LIMITED, priority 2013, dated 2018).
Where two headings read alike, the source gives them in different places. Numbered stars: 1 amine (or outer) side, 2 acyl side, 3 side chain; on linkers, the order of the positions; unused ones are H or OH. Bridge positions count the residues as written; N and C are the ends. Square brackets hold non-standard residues; d marks the D form. Peptide text beside a SMILES is read from it. TBMB = c1c(C[*:1])cc(C[*:3])cc1C[*:2]; NMeH = CN[C@@H](Cc1c[nH]cn1)C(=O)O; hArg = N=C(N)NCCCC[C@H](N)C(=O)O; NMeQ = CN[C@@H](CCC(N)=O)C(=O)O; NMeD = CN[C@@H](CC(=O)O)C(=O)O; NMeL = CN[C@@H](CC(C)C)C(=O)O; Aze = O=C(O)[C@@H]1CCN1

Tests used:
rat plasma Kallikrein = molecular target: T1, rat plasma Kallikrein (Rattus norvegicus, UniProt P14272); settings: Table 1; read-out: Ki (nM) (rat kallikrein); cited from earlier work
T1 construct: polyhistidine tag (N, cleaved yes); proTEV cleavage site (pro-peptide linker) (N, cleaved yes); made in house; host or cells: HEK-293 (suspension-adapted)

human plasma Kallikrein = molecular target: T2, human plasma Kallikrein (Homo sapiens, UniProt P03952); test: Functional enzyme inhibition assay with fluorogenic substrate Z-PheArg-AMC, human plasma Kallikrein; format: biochemical; settings: for Ki: read-out: Ki
T2 construct: purchased Stratech, UK
Procedure, shortened: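 Human plasma kallikrein at 26.5 pM was preincubated 15 minutes with test peptide in Tris/NaCl/MgCl2/CaCl2/BSA buffer pH7.4 at 25° C, then Z-PheArg-AMC added to 100 μM final in 4% DMSO.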

[1] = Plasma stability / fragment profiling Method #2 (MALDI-TOF, 95% plasma), human plasma; format: in vitro ADME; settings: peptide fragments observed after incubation in human plasma
Experimental: To obtain stability data more rapidly, peptides were also assessed in 95% plasma. Here, PBS was omitted, and a 1 mM peptide stock (in DMSO) was directly diluted into plasma (i.e. 2.5 uL stock into 47.5 uL plasma), giving a final concentration of 50 uM. 5 uL samples were taken at appropriate time points and frozen at −80 deg C. For analysis, the samples were defrosted, mixed with 15 uL of 1:1 acetonitrile:methanol, and centrifuged at 13 k for 5 min. 5 uL of the peptide-containing supernatant was aspirated and mixed with 30 mM ammonium bicarbonate in a 1:1 mixture of acetonitrile:H2O. 1 uL of this was then spotted on the MALDI plate and analysed as described above. As above, it should be noted that this is a qualitative assay serves to detect relative changes in plasma stability.
Ac-06-34-18(TMB)-NH2 Phe2 Tyr4 (referred to as wild type peptide) was subsequently subjected to human plasma, and analysed for fragments to appear over time. This was compared to the degradation profile observed in human plasma using the NMe-Arg5 derivative of 06-34-18 (FIGS. 18a and 18b). Fragmentation was determined according to Method #2.

[2] = Table 3a, Alanine scan in Loop2
[3] = Table 3a, ratio of Ki to wild type
[4] = Table 3b, D-amino acid scan in Loop2
[5] = Table 3b, ratio of Ki to wild type
[6] = Table 25a, fold change of Ki of variant compared to WT
[7] = Table 25a, α-N-methyl amino acid scan in Loop2, human plasma kallikrein

T2 sequence (P03952 20-638): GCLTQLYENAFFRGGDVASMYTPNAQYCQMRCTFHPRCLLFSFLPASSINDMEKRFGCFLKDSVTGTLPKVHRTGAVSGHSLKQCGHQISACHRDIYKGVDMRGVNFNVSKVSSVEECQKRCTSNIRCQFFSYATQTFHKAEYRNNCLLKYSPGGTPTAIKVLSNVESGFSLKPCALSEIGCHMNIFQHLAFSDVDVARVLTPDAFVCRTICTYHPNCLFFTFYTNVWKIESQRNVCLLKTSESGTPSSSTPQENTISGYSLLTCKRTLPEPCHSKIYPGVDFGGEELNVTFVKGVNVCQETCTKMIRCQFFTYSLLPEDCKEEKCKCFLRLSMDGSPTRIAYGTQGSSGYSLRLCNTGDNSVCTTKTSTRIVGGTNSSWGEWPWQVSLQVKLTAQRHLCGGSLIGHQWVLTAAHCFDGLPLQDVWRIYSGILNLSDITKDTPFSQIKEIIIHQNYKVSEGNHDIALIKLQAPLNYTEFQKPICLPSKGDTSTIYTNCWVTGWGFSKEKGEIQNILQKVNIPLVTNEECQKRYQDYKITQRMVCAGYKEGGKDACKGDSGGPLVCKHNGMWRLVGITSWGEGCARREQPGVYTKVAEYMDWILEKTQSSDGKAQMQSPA
T1 sequence (P14272 391-638 limits assumed): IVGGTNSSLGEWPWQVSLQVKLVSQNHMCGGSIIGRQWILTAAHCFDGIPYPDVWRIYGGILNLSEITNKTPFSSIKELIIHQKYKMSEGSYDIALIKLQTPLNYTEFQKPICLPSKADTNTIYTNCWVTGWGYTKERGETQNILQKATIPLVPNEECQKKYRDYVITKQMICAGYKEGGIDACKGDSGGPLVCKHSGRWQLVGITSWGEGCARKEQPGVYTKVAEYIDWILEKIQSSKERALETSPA

Compound | Ki (human plasma Kallikrein; [4]) [µM] | F (Kivar/KiWT) (human plasma Kallikrein; [5]) | Fragments (human plasma) ([1]; Table 3b) | F (Kivar/KiWT) (human plasma Kallikrein; [6]) | Ki (human plasma Kallikrein; [7]) [µM] | Fragments (human plasma) ([1]; Table 25a) | further results
CC(=O)N[C@H]1CSCc2cc3cc(c2)CSC[C@H](NC(=O)[C@H](CCCCNC(=N)N)NC(=O)[C@H](Cc2ccc(O)cc2)NC(=O)[C@@H]2CCN2C(=O)[C@H](Cc2ccccc2)NC(=O)[C@H](CO)NC1=O)C(=O)N[C@@H](CC(C)C)C(=O)N[C@@H](Cc1c[nH]cn1)C(=O)N[C@@H](CCC(N)=O)C(=O)N[C@@H](CC(=O)O)C(=O)N[C@@H](CC(C)C)C(=O)N[C@H](C(N)=O)CSC3 [Ac-(06-34-18) Phe2 Aze3 Tyr4 HomoArg5] (Ac-CSF[Aze]Y[hArg]CLHQDLC-NH2; linker 1-7-13 via TBMB) | – | – | – | – | – | – | Ki (rat plasma Kallikrein): 3 nM
CC(=O)N[C@H]1CSCc2cc3cc(c2)CSC[C@H](NC(=O)[C@H](CCCNC(=N)N)NC(=O)[C@H](Cc2ccc(O)cc2)NC(=O)[C@@H]2CCCN2C(=O)[C@H](Cc2ccccc2)NC(=O)[C@H](CO)NC1=O)C(=O)N[C@@H](CC(C)C)C(=O)N[C@@H](Cc1c[nH]cn1)C(=O)N[C@@H](C)C(=O)N[C@@H](CC(=O)O)C(=O)N[C@@H](CC(C)C)C(=O)N[C@H](C(N)=O)CSC3 [Ac-(06-34-18) Phe2 Tyr4 Ala8] (Ac-CSFPYRCLHADLC-NH2; linker 1-7-13 via TBMB) | – | – | – | – | – | – | Ki (human plasma Kallikrein; [2]): 0.00174 µM; F (Kivar/KiWT) (human plasma Kallikrein; [3]): 4; Fragments (human plasma) ([1]; Table 3a): -LHQ, -R
CC(=O)N[C@H]1CSCc2cc3cc(c2)CSC[C@H](NC(=O)[C@H](CCCNC(=N)N)NC(=O)[C@H](Cc2ccc(O)cc2)NC(=O)[C@@H]2CCCN2C(=O)[C@H](Cc2ccccc2)NC(=O)[C@H](CO)NC1=O)C(=O)N[C@@H](CC(C)C)C(=O)N[C@@H](Cc1c[nH]cn1)C(=O)N[C@@H](CCC(N)=O)C(=O)N[C@@H](C)C(=O)N[C@@H](CC(C)C)C(=O)N[C@H](C(N)=O)CSC3 [Ac-(06-34-18) Phe2 Tyr4 Ala9] (Ac-CSFPYRCLHQALC-NH2; linker 1-7-13 via TBMB) | – | – | – | – | – | – | Ki (human plasma Kallikrein; [2]): 0.00158 µM; F (Kivar/KiWT) (human plasma Kallikrein; [3]): 4; Fragments (human plasma) ([1]; Table 3a): -LHQDL, -R
CC(=O)N[C@H]1CSCc2cc3cc(c2)CSC[C@H](NC(=O)[C@H](CCCNC(=N)N)NC(=O)[C@H](Cc2ccc(O)cc2)NC(=O)[C@@H]2CCCN2C(=O)[C@H](Cc2ccccc2)NC(=O)[C@H](CO)NC1=O)C(=O)N[C@@H](CC(C)C)C(=O)N[C@@H](Cc1c[nH]cn1)C(=O)N[C@@H](CCC(N)=O)C(=O)N[C@@H](CC(=O)O)C(=O)N[C@@H](C)C(=O)N[C@H](C(N)=O)CSC3 [Ac-(06-34-18) Phe2 Tyr4 Ala10] (Ac-CSFPYRCLHQDAC-NH2; linker 1-7-13 via TBMB) | – | – | – | – | – | – | Ki (human plasma Kallikrein; [2]): 0.0135 µM; F (Kivar/KiWT) (human plasma Kallikrein; [3]): 32; Fragments (human plasma) ([1]; Table 3a): -LHQ, -LHQDL, -R
CC(=O)N[C@H]1CSCc2cc3cc(c2)CSC[C@H](NC(=O)[C@H](CCCNC(=N)N)NC(=O)[C@H](Cc2ccc(O)cc2)NC(=O)[C@@H]2CCCN2C(=O)[C@H](Cc2ccccc2)NC(=O)[C@H](CO)NC1=O)C(=O)N[C@@H](CC(C)C)C(=O)N[C@@H](Cc1c[nH]cn1)C(=O)N[C@H](CCC(N)=O)C(=O)N[C@@H](CC(=O)O)C(=O)N[C@@H](CC(C)C)C(=O)N[C@H](C(N)=O)CSC3 [Ac-(06-34-18) Phe2 Tyr4 D-Gln8] (Ac-CSFPYRCLH[dQ]DLC-NH2; linker 1-7-13 via TBMB) | 0.317 | 755 | -R, -FPYR | – | – | – | –
CC(=O)N[C@H]1CSCc2cc3cc(c2)CSC[C@H](NC(=O)[C@H](CCCNC(=N)N)NC(=O)[C@H](Cc2ccc(O)cc2)NC(=O)[C@@H]2CCCN2C(=O)[C@H](Cc2ccccc2)NC(=O)[C@H](CO)NC1=O)C(=O)N[C@@H](CC(C)C)C(=O)N[C@H](Cc1c[nH]cn1)C(=O)N[C@@H](CCC(N)=O)C(=O)N[C@@H](CC(=O)O)C(=O)N[C@@H](CC(C)C)C(=O)N[C@H](C(N)=O)CSC3 [Ac-(06-34-18) Phe2 Tyr4 D-His7] (Ac-CSFPYRCL[dH]QDLC-NH2; linker 1-7-13 via TBMB) | 0.129 | 308 | -R, -FPYR | – | – | – | –
CC(=O)N[C@H]1CSCc2cc3cc(c2)CSC[C@H](NC(=O)[C@H](CCCNC(=N)N)NC(=O)[C@H](Cc2ccc(O)cc2)NC(=O)[C@@H]2CCCN2C(=O)[C@H](Cc2ccccc2)NC(=O)[C@H](CO)NC1=O)C(=O)N[C@H](CC(C)C)C(=O)N[C@@H](Cc1c[nH]cn1)C(=O)N[C@@H](CCC(N)=O)C(=O)N[C@@H](CC(=O)O)C(=O)N[C@@H](CC(C)C)C(=O)N[C@H](C(N)=O)CSC3 [Ac-(06-34-18) Phe2 Tyr4 D-Leu6] (Ac-CSFPYRC[dL]HQDLC-NH2; linker 1-7-13 via TBMB) | 9.08 | 21615 | -R, -FPYR | – | – | – | –
CC(=O)N[C@H]1CSCc2cc3cc(c2)CSC[C@H](NC(=O)[C@H](CCCNC(=N)N)NC(=O)[C@H](Cc2ccc(O)cc2)NC(=O)[C@@H]2CCCN2C(=O)[C@H](Cc2ccccc2)NC(=O)[C@H](CO)NC1=O)C(=O)N[C@@H](CC(C)C)C(=O)N[C@@H](Cc1c[nH]cn1)C(=O)N[C@@H](CCC(N)=O)C(=O)N[C@@H](CC(=O)O)C(=O)N[C@H](CC(C)C)C(=O)N[C@H](C(N)=O)CSC3 [Ac-(06-34-18) Phe2 Tyr4 D-Leu10] (Ac-CSFPYRCLHQD[dL]C-NH2; linker 1-7-13 via TBMB) | 0.416 | 990 | -R, -FPYR | – | – | – | –
CC(=O)N[C@H]1CSCc2cc3cc(c2)CSC[C@H](NC(=O)[C@H](CCCNC(=N)N)NC(=O)[C@H](Cc2ccc(O)cc2)NC(=O)[C@@H]2CCCN2C(=O)[C@H](Cc2ccccc2)NC(=O)[C@H](CO)NC1=O)C(=O)N[C@@H](CC(C)C)C(=O)N[C@@H](Cc1c[nH]cn1)C(=O)N[C@@H](CCC(N)=O)C(=O)N(C)[C@@H](CC(=O)O)C(=O)N[C@@H](CC(C)C)C(=O)N[C@H](C(N)=O)CSC3 [Ac-(06-34-18) Phe2 Tyr4 NMe-Asp9] (Ac-CSFPYRCLHQ[NMeD]LC-NH2; linker 1-7-13 via TBMB) | – | – | – | 105 | 0.0443 | -R, -FPYR | –
CC(=O)N[C@H]1CSCc2cc3cc(c2)CSC[C@H](NC(=O)[C@H](CCCNC(=N)N)NC(=O)[C@H](Cc2ccc(O)cc2)NC(=O)[C@@H]2CCCN2C(=O)[C@H](Cc2ccccc2)NC(=O)[C@H](CO)NC1=O)C(=O)N[C@@H](CC(C)C)C(=O)N[C@@H](Cc1c[nH]cn1)C(=O)N(C)[C@@H](CCC(N)=O)C(=O)N[C@@H](CC(=O)O)C(=O)N[C@@H](CC(C)C)C(=O)N[C@H](C(N)=O)CSC3 [Ac-(06-34-18) Phe2 Tyr4 NMe-Gln8] (Ac-CSFPYRCLH[NMeQ]DLC-NH2; linker 1-7-13 via TBMB) | – | – | – | 149 | 0.0628 | -R, -FPYR | –
CC(=O)N[C@H]1CSCc2cc3cc(c2)CSC[C@H](NC(=O)[C@H](CCCNC(=N)N)NC(=O)[C@H](Cc2ccc(O)cc2)NC(=O)[C@@H]2CCCN2C(=O)[C@H](Cc2ccccc2)NC(=O)[C@H](CO)NC1=O)C(=O)N[C@@H](CC(C)C)C(=O)N(C)[C@@H](Cc1cnc[nH]1)C(=O)N[C@@H](CCC(N)=O)C(=O)N[C@@H](CC(=O)O)C(=O)N[C@@H](CC(C)C)C(=O)N[C@H](C(N)=O)CSC3 [Ac-(06-34-18) Phe2 Tyr4 NMe-His7] (Ac-CSFPYRCL[NMeH]QDLC-NH2; linker 1-7-13 via TBMB) | – | – | – | 151 | 0.0635 | -R, -FPYR | –
CC(=O)N[C@H]1CSCc2cc3cc(c2)CSC[C@H](NC(=O)[C@H](CCCNC(=N)N)NC(=O)[C@H](Cc2ccc(O)cc2)NC(=O)[C@@H]2CCCN2C(=O)[C@H](Cc2ccccc2)NC(=O)[C@H](CO)NC1=O)C(=O)N(C)[C@@H](CC(C)C)C(=O)N[C@@H](Cc1c[nH]cn1)C(=O)N[C@@H](CCC(N)=O)C(=O)N[C@@H](CC(=O)O)C(=O)N[C@@H](CC(C)C)C(=O)N[C@H](C(N)=O)CSC3 [Ac-(06-34-18) Phe2 Tyr4 NMe-Leu6] (Ac-CSFPYRC[NMeL]HQDLC-NH2; linker 1-7-13 via TBMB) | – | – | – | 137 | 0.0574 | -R, -FPYR | –
CC(=O)N[C@H]1CSCc2cc3cc(c2)CSC[C@H](NC(=O)[C@H](CCCNC(=N)N)NC(=O)[C@H](Cc2ccc(O)cc2)NC(=O)[C@@H]2CCCN2C(=O)[C@H](Cc2ccccc2)NC(=O)[C@H](CO)NC1=O)C(=O)N[C@@H](CC(C)C)C(=O)N[C@@H](Cc1c[nH]cn1)C(=O)N[C@@H](CCC(N)=O)C(=O)N[C@@H](CC(=O)O)C(=O)N(C)[C@@H](CC(C)C)C(=O)N[C@H](C(N)=O)CSC3 [Ac-(06-34-18) Phe2 Tyr4 NMe-Leu10] (Ac-CSFPYRCLHQD[NMeL]C-NH2; linker 1-7-13 via TBMB) | – | – | – | 1396 | 0.586 | -R, -FPYR | –
